From patent US20060194819A1, “Activation specific inhibitors of nf-kb and method of treating inflammatory processes in cardio-vascular diseases” (PROCORDE GMBH, priority 2003, published 2006)
Read-outs that look alike come from different tables or passages of the source.

Key:
[1] = test system: ICAM expression in HUVEC cells; assay: ICAM expression in HUVEC cells by FACS analysis; assay type: cell-based; details: Homo sapiens, read-out: IC50 for inhibition of ICAM expression
Procedure: HUVEC cells were seeded in 6-well plates 1×10^6 cells/well. After 24 h the cells were treated with different concentration of compound 68. After 1 h the medium was removed and the cells incubated with either IL-1 (100 pg/ml) or TNF alpha (1 ng/ml) for a total of 4 h. Thereafter the cells were harvested with trypsin, washed with PBS and centrifuged with 1000 rpm for 5 min. The pellet was resuspended in 50 μl PBS and 5 μl CD54-PE antibody (anti-ICAM antibody from Beckman/Coulter/Immunotech). After washing twice in PBS, the ICAM cell surface expression was analysed by a FACScan (Becton Dickinson).

[2] = Isomerization in solution observed by NMR; assay type: physicochemical
From the text: These signals were tentatively attributed to a cis/trans isomer of compound 4. The signal intensities of this isomer accounted for approximately 10% of the signals due to the major product. In acetone-db, this isomerization was slower and occurred within days.

HeLa cells = assay: Cell viability, WST-1 assay; assay type: cell-based
Procedure: […] The medium was changed and 10 μL of the WST-1 reagent was added to each well. After 2 h the absorption of 450 nm was measured in an Elisa-reader.

[3] = Solubility tests, 1.2 mg in 500 μl of each solvent; assay type: physicochemical
Procedure: Solubility tests were performed with aliquots of compound 4 (1.2 mg) and 500 μl of each solvent.

[4] = test system: I KappaB alpha phosphorylation; assay: P-IkBalpha detection in Western blot of HeLa cell lysates after TNF alpha stimulation; assay type: cell-based; details: HeLa cells, 10 and 100 μM
Procedure: P-IkBα Detektion in Western-Blot Protocol: HeLa cells were maintained in Dulbecco's modified Eagle's medium (Invitrogen) supplemented with 10% fetal bovine serum, 2 mM L-glutamine, penicillin (50 units/ml) and streptomycin (50 μg/ml). 24 h before treatment with different compounds HeLa cells were plated at a density of 5×10^6 per well in 100-mm cell culture dishes to 90% confluences.
The cells were incubated with different drugs at the concentration indicated for 1 h, washed twice with PBS and stimulated with 20 ng/ml TNF alpha (Roche). After 7 min the cells were washed twice with ice cold PBS followed by scraping and transferring into a 1.5 ml micro centrifuge tube. After centrifugation by 2000 rpm for 2 min by 4° C. the PBS supernatant was removed and 200 μl lysis-buffer (10 mM Hepes, pH 7.9, 0.1% NP40, 10 mM, 300 mM Sucrose, 10 mM KCl, 15 mM MgCl2, 1 mM DTT, 0.5 mM PMSF and antipain, aprotinin, leupeptin each 0.75 μg/ml (Sigma) was added to the pellet. The resuspended pellet was incubated on ice for 5 min and centrifuged at 13000 g for 30 s. 30 μl of the supernatant, cytosolic extract, was diluted with Laemmli-buffer (2% SDS, 2% 2-Mercaptoethanol, 0.01% Bromophenol blue, 8% Glycerine), heated by 60° C. for 10 min and loaded to a 4-20% polyacrylamid gels (BioRad). After electrophoresis the proteins were transferred to a nitrocellulose membrane using the wet blotting technique. First the membrane was blocked with Roti-Block (Roth) and afterwards incubated with monoclonal antibodies against P-IkBalpha (Santa Cruz Biotechnology, used at 1:200 dilution). This incubation was followed by the appropriate horseradish peroxidase-conjugated secondary antibody (Dianova) at 1:10000 dilution. Antibody binding was visualized on x-ray film using the Western blot Chemiluminescent Reagent Detection Kit (Santa Cruz).

NF-kappaB = assay: Electrophoretic mobility shift assay (EMSA) for NF-kappaB in LPS stimulated THP-1 monocytic cells; assay type: cell-based; details: THP-1 cells; for NF-kappaB activation: LPS
Procedure: Electrophoretic Mobility Shift Assay (EMSA): THP-1 monocytic cells (DSM, Braunschweig, Germany) were maintained in suspension in RPMI 1640 (Glutamax-1, low endotoxin) containing 7% fetal calf serum (FCS) (Myoclone super plus, low endotoxin), 100 units/ml penicillin, and […] streptomycin (Life Technologies, Inc., Eggenstein, Germany). For the experiments, the cells were plated at a density of 3×10^6 per well in 6-well culture dishes. Nuclear extracts were prepared by harvesting cells by centrifugation at 1200 rpm for 7 min at 4° C. The cells were resuspended by adding 1 ml ice cold PBS and transferred into a microcentrifuge tube. After centrifugation at 2000 g for 2 min by 4° C. the pellet was lysed in 50 μl buffer A (10 mM Hepes, pH 7.9, 0.1% NP40, 10 mM, 300 mM Sucrose, 10 mM KCl, 15 mM MgCl2, 1 mM DTT, 0.5 mM PMSF and antipain, aprotinin, leupeptin each 0.75 μg/ml (Sigma)). After 5 min incubation on ice and centrifugation at 16000 g for 5 sec the pellet was washed with 100 μl buffer A. The nuclear pellet was resuspended with 100 μl buffer B (20 mM Hepes, pH 7.9, 100 mM KCl, 100 mM NaCl, 1 mM DTT, 20% Glycerol, 0.5 mM PMSF and antipain, aprotinin, leupeptin each 0.75 μg/ml (Sigma)) and sonicated for 10 sec. The probe was pulse centrifuged at 16000 g for 5 sec. The nuclear extract was aliquoted and snap-freeze in liquid N2. Nuclear extracts ([…] of protein) were incubated with radiolabeled DNA probes (10 ng; 10^5 cpm) for 30 min at room temperature in […] of binding buffer (20 mM HEPES, pH 7.9, 50 mM KCl, 1 mM dithiothreitol, 0.5 mM EDTA, 10% glycerol, 1 mg/ml bovine serum albumin, 0.2% Nonidet P-40, 50 ng of poly(dI-dC)/ml). […] The binding of Sp-1 and AP-1 was also analysed by EMSA using specific consensus oligonucleotides (Promega, Heidelberg, Germany) that were labeled with [γ-^32P]ATP (>5,000 Ci/mmol, NEN Life Science Products) and T4 polynucleotide kinase (Boehringer Mannheim). Gels were dried and analysed by autoradiography. […]

SMILES | IC50 ([1]; after IL-1 stimulation (100 pg/ml)) | IC50 ([1]; after TNF alpha stimulation (1 ng/ml)) | signal intensities of the isomer relative to the major product ([2]; DMSO-d6, rt) | time to appearance of second set of NMR signals (cis/trans isomer) ([2]; DMSO-d6, rt) | time of isomerization ([2]; acetone-d6) | cell viability (WST staining) (HeLa cells; HeLa cells, 33 and 100 μmol/L, one day) | Solubility ([3]; Acetone) | Solubility ([3]; DMSO) | Solubility ([3]; H2O) | Solubility ([3]; MeCN) | Solubility ([3]; MeOH) | effect on IkappaB phosphorylation (Western blot), comparison of COM 73 and COM 54 family [4] | NF-kappaB activation (NF-kappaB; 12.5 μM and 25 μM) | NF-kappaB activation (NF-kappaB; 50 μM and 100 μM) | reduced NF-kappaB-release (NF-kappaB; 100 μM, 1 h, LPS 1 μg/ml) | decrease in metabolic activity compared with untreated control (WST-1) (HeLa cells; HeLa cells, 30 μM, 3 h) | influence on cell viability (WST staining) (HeLa cells; HeLa cells, 0.3 to 100 μmol/L, one day) | toxicity for HeLa cells (WST-1) (HeLa cells; concentrations and conditions of the described assays)
O=C(NN=Cc1ccccc1O)c1ccc([N+](=O)[O-])o1 [COM 68, 5-Nitro-furan-2-carboxylic acid (2-hydroxy-benzylidene)-hydrazide] | 7.8 µM | 4.5 µM | approximately 10% | within minutes | within days | decreased cell viability | ++++ (++++: 100% dissolved) | ++++ (++++: 100% dissolved) | − (−: 0% dissolved) | +++ (+++: 80% dissolved) | + (+: 20% dissolved) | no effect |  |  |  |  |  | 
O=C(N/N=C/c1ccc(/C=N/NC(=O)c2ccc([N+](=O)[O-])o2)cc1)c1ccc([N+](=O)[O-])o1 [Compound 54] |  |  |  |  |  |  |  |  |  |  |  | no effect | significantly affected | nearly completely abolished | 95% | no significant decrease | no negative influence | not found to be toxic
